Assay results: patent US11725010B2, “Polyheterocyclic compounds as METTL3 inhibitors” (Storm Therapeutics Limited, priority 2019, dated 2023)
Read-outs that look alike come from different tables or passages of the source.

Legend:
[1] = target: METTL3/14 (Homo sapiens (Human), UniProt Q86U44)
[2] = tested on: Caov-3 cells; assay: Caov3 CTG proliferation assay; type: cell-based; conditions: Homo sapiens
Procedure: CTG Assay (Caov3 Cell Line)
Upon treatment, Coav-3 cells were incubated for 10 min at RT with the CellTiter-Glo reagent (G7571, Promega). Measurement of the luminescence signal was performed on a microplate reader (Ensight, PerkinElmer).
Caov3 CTG Assay—Proliferation Assay

[3] = tested on: KASUMI-1 cells; assay: Kasumi cell assay (CellTiter-Glo cell growth); type: cell-based; conditions: Homo sapiens
Procedure: Upon treatment, Kasumil cells were incubated for 10 min at RT with the CellTiter-Glo reagent (G7571, Promega). Measurement of the luminescence signal was performed on a microplate reader (Ensight, PerkinElmer).

[4] = Caov-3, treated for 120 hours, CellTiter-Glo luminescence, read-out: Caov3 cells IC50
[5] = Kasumi 1, treated for 120 hours, CellTiter-Glo luminescence, read-out: KASUMI1 cells IC50
[6] = Caov-3, 120 h, read-out: Caov3 cells IC50 nM

Chain of METTL3/14 (Q86U44 whole entry): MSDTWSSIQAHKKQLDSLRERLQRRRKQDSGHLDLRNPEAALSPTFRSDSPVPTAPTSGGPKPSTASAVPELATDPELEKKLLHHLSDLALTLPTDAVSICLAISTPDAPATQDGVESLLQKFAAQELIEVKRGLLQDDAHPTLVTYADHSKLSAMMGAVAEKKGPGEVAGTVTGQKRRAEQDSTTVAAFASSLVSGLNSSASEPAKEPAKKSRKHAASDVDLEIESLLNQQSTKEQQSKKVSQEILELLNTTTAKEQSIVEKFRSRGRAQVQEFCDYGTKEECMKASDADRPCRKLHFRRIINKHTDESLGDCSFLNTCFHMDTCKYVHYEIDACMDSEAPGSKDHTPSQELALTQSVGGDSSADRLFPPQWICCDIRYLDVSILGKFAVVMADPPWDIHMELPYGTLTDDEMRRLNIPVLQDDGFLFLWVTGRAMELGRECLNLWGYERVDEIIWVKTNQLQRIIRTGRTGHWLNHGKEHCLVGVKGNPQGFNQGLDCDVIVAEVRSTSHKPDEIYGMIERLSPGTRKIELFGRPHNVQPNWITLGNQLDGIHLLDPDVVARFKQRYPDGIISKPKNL
Chain of METTL3/14 (Q9HCE5 whole entry partner): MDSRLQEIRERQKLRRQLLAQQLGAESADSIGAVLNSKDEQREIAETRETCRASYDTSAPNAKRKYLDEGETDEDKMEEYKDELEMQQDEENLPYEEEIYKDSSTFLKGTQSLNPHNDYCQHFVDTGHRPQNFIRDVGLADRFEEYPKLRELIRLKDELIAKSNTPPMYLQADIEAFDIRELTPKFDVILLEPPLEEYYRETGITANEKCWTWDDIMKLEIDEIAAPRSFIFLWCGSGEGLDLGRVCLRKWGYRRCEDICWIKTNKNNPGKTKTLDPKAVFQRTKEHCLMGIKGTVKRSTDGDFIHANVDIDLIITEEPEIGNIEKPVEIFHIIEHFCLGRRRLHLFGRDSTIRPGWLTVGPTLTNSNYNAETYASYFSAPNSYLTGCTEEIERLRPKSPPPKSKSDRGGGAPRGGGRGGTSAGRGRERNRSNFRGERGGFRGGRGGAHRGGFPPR

Compound	IC50 [1]	IC50 [2, 4]	also measured
O=C(NCc1ccc2cc(CNC3CCCCC3)[nH]c2c1)c1cc(=O)n2ccccc2n1 [Compound 30, N-[[2-[(cyclohexylamino)methyl]-1H-indol-6-yl]methyl]-4-oxo-pyrido[1,2-a]pyrimidine-2-carboxamide]	6.1 nM		
COc1cnc(C#N)c(-c2cn(Cc3ccc4cc(CNCC56CC(C5)C6)[nH]c4c3)nn2)c1 [Example 148, 3-[1-({2-[({(Bicyclo [1.1.1]pent-1-yl)methyl}amino)methyl]-1H-indol-6-yl}methyl)-1H-1,2,3-triazol-4-yl]-5-methoxy-2-pyridine-carbonitrile]	< 6.1 nM		
O=C(NCc1ccc2cc(CNCC3CC(F)(F)C3)[nH]c2c1)c1cc(=O)n2ccccc2n1 [Compound 3, N-[[2-[[(3,3-difluorocyclobutyl)methylamino]methyl]-1H-indol-6-yl]methyl]-4-oxo-pyrido[1,2-a]pyrimidine-2-carboxamide]	6.1 nM		
O=C(NCc1ccc2cc(CNCC3(O)CCCCC3)[nH]c2c1)c1cc(=O)n2ccccc2n1 [Compound 25, N-[[2-[[(1-hydroxycyclohexyl)methylamino]methyl]-1H-indol-6-yl]methyl]-4-oxo-pyrido[1,2-a]pyrimidine-2-carboxamide]		732 nM	
OC1(CNCc2cc3ccc(Cn4cc(-c5cccc6[nH]ncc56)nn4)cc3[nH]2)CCC1 [Compound 57, 1-[[[6-[[4-(1H-indazol-4-yl)triazol-1-yl]methyl]-1H-indol-2-yl]methylamino]methyl]cyclobutanol]	6.1 nM	1060 nM	
N#CC12CC(CNCc3cc4ccc(CNC(=O)c5cc(=O)n6ccccc6n5)cc4[nH]3)(C1)C2 [Compound 111, N-[(2-{[({3-cyanobicyclo[1.1.1]pentan-1-yl}methyl)amino]methyl}-1H-indol-6-yl)methyl]-4-oxo-4H-pyrido[1,2-a]pyrimidine-2-carboxamide]			IC50 [3, 5]: 2290 nM
c1cc2cc(-c3cn(Cc4ccc5cc(CNCC6CCC6)[nH]c5c4)cn3)cnc2[nH]1 [Example 134, (cyclobutylmethyl)({6-[(4-{1H-pyrrolo[2,3-b]pyridin-5-yl}-1H-imidazol-1-yl)methyl]-1H-indol-2-yl}methyl)amine]	6.1 nM		
c1cc(-c2cn(Cc3ccc4cc(CNCC5CCC5)[nH]c4c3)cn2)c2cn[nH]c2c1 [Example 64, N-(cyclobutylmethyl)-1-[6-[[4-(1H-indazol-4-yl)imidazol-1-yl]methyl]-1H-indol-2-yl]methanamine]		922 nM	
CC(C)(C)CNCc1cc2ccc(CNC(=O)c3cc(=O)n4ccccc4n3)cc2[nH]1 [Compound 34, N-[[2-[(2,2-dimethylpropylamino)methyl]-1H-indol-6-yl]methyl]-4-oxo-pyrido[1,2-a]pyrimidine-2-carboxamide]	6.1 nM	988 nM	
O=C(NCc1ccc2cc(CN3CC4CCC3CC4)[nH]c2c1)c1cc(=O)n2ccccc2n1 [Compound 21, N-[[2-(2-azabicyclo[2.2.2]octan-2-ylmethyl)-1H-indol-6-yl]methyl]-4-oxo-pyrido[1,2-a]pyrimidine-2-carboxamide]		746 nM	
CC1(C)CN(Cc2cc3ccc(CNC(=O)c4cc(=O)n5ccccc5n4)cc3[nH]2)C1 [Compound 83, N-({2-[(3,3-dimethylazetidin-1-yl)methyl]-1H-indol-6-yl}methyl)-4-oxo-4H-pyrido[1,2-a]pyrimidine-2-carboxamide]			IC50 [3, 5]: 3680 nM
O=C(NCc1ccc2cc(CNCC3CCCC3)[nH]c2c1)c1cc(=O)n2ccccc2n1 [Compound 27, N-[[2-[(cyclopentylmethylamino)methyl]-1H-indol-6-yl]methyl]-4-oxo-pyrido[1,2-a]pyrimidine-2-carboxamide]	6.1 nM	420 nM	
O=C(NCc1cnc2cc(CNCC34CC(F)(C3)C4)[nH]c2c1)c1cc(=O)n2ccccc2n1 [Compound 127, N-[(2-{[({3-fluorobicyclo[1.1.1]pentan-1-yl}methyl)amino]methyl}-1H-pyrrolo[3,2-b]pyridin-6-yl)methyl]-4-oxo-4H-pyrido[1,2-a]pyrimidine-2-carboxamide]	6.1 nM	624 nM	
O=C(NCc1ccc2cc(CNCC3CCC3)[nH]c2c1)c1cnc2[nH]ccc2c1 [Example 137, N-[(2-{[(cyclobutylmethyl)amino]methyl}-1H-indol-6-yl)methyl]-1H-pyrrolo[2,3-b]pyridine-5-carboxamide]	6.1 nM	1080 nM	
c1cc(-c2cn(Cc3cnc4cc(CNCC5CCC5)[nH]c4c3)nn2)c2cn[nH]c2c1 [Example 59, N-(cyclobutylmethyl)-1-[6-[[4-(1H-indazol-4-yl)triazol-1-yl]methyl]-1H-pyrrolo[3,2-b]pyridin-2-yl]methanamine]	6.1 nM	524 nM	
O=C(NCc1ccc2cc(CN[C@H]3CCC[C@@H]3O)[nH]c2c1)c1cc(=O)n2ccccc2n1 [Compound 36, N-{[2-({[(1S,2S)-2-hydroxycyclopentyl]amino}methyl)-1H-indol-6-yl]methyl}-4-oxo-4H-pyrido[1,2-a]pyrimidine-2-carboxamide]	6.1 nM		IC50 [2, 6]: 973 nM

Compound	IC50 [1]	IC50 [2, 4]	also measured
O=C(NCc1ccc2cc(CNC34CC5CC(CC(C5)C3)C4)[nH]c2c1)c1cc(=O)n2ccccc2n1 [Compound 11, N-[[2-[(1-adamantylamino)methyl]-1H-indol-6-yl]methyl]-4-oxo-pyrido[1,2-a]pyrimidine-2-carboxamide]	6.1 nM	607 nM	
O=C(NCc1ccc2cc(CNCC3(O)CCC3)[nH]c2c1)c1cc(=O)n2ccccc2n1 [Compound 4, N-[[2-[[(1-hydroxycyclobutyl)methylamino]methyl]-1H-indol-6-yl]methyl]-4-oxo-pyrido[1,2-a]pyrimidine-2-carboxamide]	6.1 nM		
CC1(C)CCN(Cc2cc3ccc(CNC(=O)c4cc(=O)n5ccccc5n4)cc3[nH]2)CC1 [Example 1, N-({2-[(4,4-dimethylpiperidin-1-yl)methyl]-1H-indol-6-yl}methyl)-4-oxo-4H-pyrido[1,2-a]pyrimidine-2-carboxamide]		260 nM	
O[C@@H]1CCC[C@@H]1NCc1cc2ccc(Cn3cc(-c4cccc5[nH]ncc45)nn3)cc2[nH]1 [Compound 54, (1R,2S)-2-[[6-[[4-(1H-indazol-4-yl)triazol-1-yl]methyl]-1H-indol-2-yl]methylamino]cyclopentanol]		837 nM	
c1cc2cc(-c3cn(Cc4ccc5cc(CNCC6CCC6)[nH]c5c4)nn3)cnc2[nH]1 [Example 138, (cyclobutylmethyl)({6-[(4-{1H-pyrrolo[2,3-b]pyridin-5-yl}-1H-1,2,3-triazol-1-yl)methyl]-1H-indol-2-yl}methyl)amine]	6.1 nM		
O=C(NCc1ccc2cc(CNCC3(O)CCCC3)[nH]c2c1)c1cc(=O)n2ccccc2n1 [Compound 15, N-[[2-[[(1-hydroxycyclopentyl)methylamino]methyl]-1H-indol-6-yl]methyl]-4-oxo-pyrido[1,2-a]pyrimidine-2-carboxamide]	6.1 nM	658 nM	
O=C(NCc1ccc2cc(CNC3CCCC3)[nH]c2c1)c1cc(=O)n2ccccc2n1 [Compound 26, N-[[2-[(cyclopentylamino)methyl]-1H-indol-6-yl]methyl]-4-oxo-pyrido[1,2-a]pyrimidine-2-carboxamide]	6.1 nM	274 nM	
CC1(CNCc2cc3ccc(CNC(=O)c4cc(=O)n5ccccc5n4)cc3[nH]2)CC1 [Example 6, N-[[2-[[(1-methylcyclopropyl)methylamino]methyl]-1H-indol-6-yl]methyl]-4-oxo-pyrido[1,2-a]pyrimidine-2-carboxamide]	6.1 nM	756 nM	
c1cc(-c2nsc(Cc3ccc4cc(CNCC5CCC5)[nH]c4c3)n2)c2cn[nH]c2c1 [Example 65]	16100 nM		
c1cc(-c2cn(Cc3ccc4cc(CNCC5CCC5)[nH]c4c3)nn2)c2cncn2c1 [Example 135, (cyclobutylmethyl)({6-[(4-{imidazo[1,5-a]pyridin-8-yl}-1H-1,2,3-triazol-1-yl)methyl]-1H-indol-2-yl}methyl)amine]		269 nM	
c1cc(-c2cn(Cc3ccc4cc(CNC5CCCC5)[nH]c4c3)nn2)c2cn[nH]c2c1 [Compound 55, N-[[6-[[4-(1H-indazol-4-yl)triazol-1-yl]methyl]-1H-indol-2-yl]methyl]cyclopentanamine]	6.1 nM	764 nM	
O=c1cc(-c2cn(Cc3ccc4cc(CNCC5CCC5)[nH]c4c3)nn2)nc2ccccn12 [Example 62, 2-[1-[[2-[(cyclobutylmethylamino)methyl]-1H-indol-6-yl]methyl]triazol-4-yl]pyrido[1,2-a]pyrimidin-4-one]	6.1 nM	696 nM	
c1cc(-c2cn(Cc3ccc4cc(CNCC5CCC5)[nH]c4c3)nn2)c2cn[nH]c2c1 [Example 58, N-(cyclobutylmethyl)-1-[6-[[4-(1H-indazol-4-yl)triazol-1-yl]methyl]-1H-indol-2-yl]methanamine]	6.1 nM	702 nM	
CN(Cc1cc2ccc(CNC(=O)c3cc(=O)n4ccccc4n3)cc2[nH]1)CC1CCC1 [Example 70, N-[[2-[[cyclobutylmethyl(methyl)amino]methyl]-1H-indol-6-yl]methyl]-4-oxo-pyrido[1,2-a]pyrimidine-2-carboxamide]			IC50 ([3]; Kasumi 1, 120 h, read-out: KASUMI1 cells IC50 nM): 4900 nM
O=C(NCc1cnc2cc(CNCC3CCC3)[nH]c2c1)c1cc(=O)n2ccccc2n1 [Example 49, N-[[2-[(cyclobutylmethylamino)methyl]-1H-pyrrolo[3,2-b]pyridin-6-yl]methyl]-4-oxo-pyrido[1,2-a]pyrimidine-2-carboxamide]			IC50 [2, 6]: 1060 nM
